Experimental findings from US7105572B2, “Stable emulsion compositions” (Takeda Pharmaceutical Company Limited, priority 2000, dated 2006) are described below.

Structures are written as SMILES.

Experiment [1] deals with nitric oxide concentration (NOx) in blood. Kind of experiment: Effect on increase of nitric oxide concentration (NOx) in blood of LPS-treated mice. It counts as in vivo, BALB/c mice. The settings on record: 30 mg/kg orally, 1 hour before LPS 10 mg/kg i.p.; serum 6 hours after LPS; vs control group.
Another experiment concerns TNF-α. In words: Effect on increase of cytokine concentration in blood of LPS-treated mice: TNF-α. The settings on record: 30 mg/kg orally, 1 hour before LPS 10 mg/kg i.p.; serum 1 hour after LPS. It counts as in vivo, BALB/c mice. The protocol: (§1) As a result of a defense mechanism against an infection and the like or an immune abnormality, various cytokines are produced in vivo. Accordingly, an experimental animal was used to examine the effect of a test compound on the increase cytokine concentration in blood.
(§2) Female BALB/c mice (6 weeks old) were purchased and acclimatized for 1 week and assigned to the groups in each of which 6 to 8 animals were included. In a treatment group, 30 mg/kg of a test compound suspended in a 0.5% aqueous methyl cellulose solution was given orally. In a control group, the vehicle was given similarly. After 1 hour, LPS (10 mg/kg) was given intraperitoneally to each animal in the treatment and control groups, and the blood was taken 1 hour after the LPS administration and examined for concentrations of TNF-α in the serum. IL-1α, IL-1β and IL-6 concentrations were determined using the serum from the blood taken 6 hours after the LPS administration. Each cytokine was determined using an assay kit manufactured by Amersham.

For a further experiment, the system named is IL-1α. Kind of experiment: Effect on increase of cytokine concentration in blood of LPS-treated mice: IL-1α. It counts as in vivo, BALB/c mice. The conditions noted are these: 30 mg/kg orally, 1 hour before LPS 10 mg/kg i.p.; serum 6 hours after LPS. Here is the method:
as §1, §2

The test system of the next experiment is IL-1β. In words: Effect on increase of cytokine concentration in blood of LPS-treated mice: IL-1β. Type of experiment: in vivo, BALB/c mice. The conditions noted are these: 30 mg/kg orally, 1 hour before LPS 10 mg/kg i.p.; serum 6 hours after LPS. Here is the method:
as §1, §2

A further experiment concerns IL-6. In words: Effect on increase of cytokine concentration in blood of LPS-treated mice: IL-6. It counts as in vivo, BALB/c mice. The conditions noted are these: 30 mg/kg orally, 1 hour before LPS 10 mg/kg i.p.; serum 6 hours after LPS. Here is the method:
as §1, §2

For experiment [2], the system named is NO production by RAW264.7 cell. Kind of experiment: NO production-inhibiting effect in RAW264.7 cells stimulated with LPS and interferon-gamma. It counts as cell-based, mouse. The conditions noted are these: LPS 5 ng/ml + interferon-gamma 1 U/ml, nitrite ion in culture supernatant, compounds 1 and 3: minimum and maximum of 7 and 9 tests. Here is the method:
Mouse macrophage cell line RAW264.7 was used as an iNOS-inducible cell and a test compound was examined for its % inhibition of NO production. The test compound was dissolved at the concentration of 10 mM in N,N-dimethylformamide and diluted with an RPMI-1640 medium at the concentration of 0.1 mM. The concentration was further adjusted using the medium, so that a final concentration ranging from 10 μM to 10 nM could be obtained by a 10-fold serial dilution, and the test compound was added to a culture medium. […] at 5×10^5/ml with 10% inactivated fetal calf serum in an RPMI-1640 medium and inoculated to a 96-well plate at 1×10^5 cells/0.2 ml per well. After incubating at 37° C. under an atmosphere of 5% CO2/95% air overnight, the test compound adjusted as described above was added and then LPS and interferon-gamma were added at the final concentrations of 5 ng/ml and 1 U/ml, respectively. […] The nitrite ion concentration was determined by adding 25 μl of 20 μg/ml of 2,3-diaminonaphthalene (DAN) to 50 μl of the culture supernatant, followed by incubating at room temperature for 10 minutes, followed by adding 25 μl of 0.5 N NaOH, followed by determining a fluorescence at 450 nm (excitation wavelength: 365 nm). […]

Consider `CCOC(=O)C1=CCCCC1S(=O)(=O)Nc1ccc(Cl)cc1F` (centres unmarked) [Compound 1, ethyl 6-[N-(4-chloro-2-fluorophenyl)sulfamoyl]-1-cyclohexene-1-carboxylate], for which the “NOx inhibition (%) in blood” value in experiment [1] amounted to 76%. Further, in the experiment with TNF-α, the “cytokine inhibition (%) in blood TNF-α” value was determined as 98%. Further, the “cytokine inhibition (%) in blood IL-1α” value with IL-1α was found to be 97%. Moreover, in the experiment on IL-1β, the “cytokine inhibition (%) in blood IL-1β” value stood at 73%. In the experiment with IL-6, the “cytokine inhibition (%) in blood IL-6” value came out at 89%.

For the molecule `CCOC(=O)C1=CCCCC1S(=O)(=O)Nc1ccc(F)cc1F` (centres unmarked) [Compound 3, ethyl 6-[N-(2,4-difluorophenyl)sulfamoyl]-1-cyclohexene-1-carboxylate], the “NOx inhibition (%) in blood” value in experiment [1] stood at 90%.

The IC50 is the concentration that inhibits the measured activity by half. Turning to `CCOC(=O)C1=CCCCC1S(=O)(=O)Nc1cccc(F)c1` (centres unmarked) [Compound 11, ethyl 6-[N-(3-fluorophenyl)sulfamoyl]-1-cyclohexene-1-carboxylate], the IC50 in experiment [2] (Mus musculus) was 0.31 µM.

As to `CCOC(=O)C1=CCCCC1S(=O)(=O)Nc1ccc(F)cc1F` (stereo not drawn) [Compound 20, d-ethyl 6-[N-(2,4-difluorophenyl)sulfamoyl]-1-cyclohexene-1-carboxylate], the IC50 in experiment [2] stood at 0.005 µM.
